“Also recorded” adds a separate entry of the source.
Columns and labels:
[1] = tested on: bovine aortal endothelial cells (BAEC); assay: Cell attachment assay in monolayers (peptide-coated Sepharose beads), BAEC; assay type: cell-based; details: for cell binding activity at the lower dose (words): BAEC monolayer, 6 mg peptide/ml compared with 12 mg/ml; for Nomarsky optics microscopy of peptide coated beads attached to BAEC (observation): 3 weeks of incubation; for overall activity at longer incubation times: microscopy, statement follows FF1 and BAEC paragraphs
Description: (§1) 100 mg of dried CNBr-Sepharose Beads (yields 350 μl of swollen Sepharose Beads—gel) was introduced into a disposable polystyrene mini-column (FIG. 1), appropriate for the preparation of a 0.5-2 ml gel filtration column (Pierce, Prod #29920). The lower part of the columns is blocked by a thick glass filter and a stopper.
(§2) 3-4 ml total volume of HCl solution (1 mM) was added to the column, and the liquid was forced to flow under vacuum pressure through the gel. This process was repeated 5 times. The final aliquot of HCl was aspirated until cracks appeared in the gel cake. 2-3 ml aliquots of coupling buffer were immediately added to the washed beads and aspirated. This step was repeated 4-5 times. The high pH hydrolyzes and opens the active groups.
(§3) A peptide solution in coupling buffer prepared as above was immediately added to the activated SEPHAROSE BEADS Sepharose beads were used to fixate the peptides for all in-vitro assays in the column to a final binding of 6 mg peptide per ml SEPHAROSE BEADS gel. The column was closed and shaken overnight at 4° C. very gently to avoid mechanical breakage of SEPHAROSE BEADS. The bottom cap of the column was removed and the solution of ligand/buffer was collected as the Sepharose Beads settled on the filter. The OD280 of the collected buffer was checked to determine the concentration of uncoupled peptide. The gel was washed/aspirated with 5 volumes (˜2 ml) of coupling buffer and gently mixed. Any remaining active groups on the gel were blocked with blocking buffer for 2 hours at room temperature or overnight at 4° C. The Sepharose Beads gel with peptides was then washed by 2 cycles each of 5 gel volumes of: • a. 0.1 M Acetate buffer • b. Coupling buffer • c. Storing buffer: azide-coupling buffer: coupling buffer containing 0.1% NaN3 (final concentration)
(§4) The tested peptides (Table 1) were coupled to Sepharose Beads at two concentrations: 6 and 12 mg/ml Sepharose Beads. Sepharose Beads that underwent the coupling procedure without peptide addition (“naked Sepharose Beads”) served as a negative control (referred to herein as “Sepharose Beads—blank”). A cell binding assay was performed with 2 normal cell types: bovine aortal endothelial cells (BAEC) and human foreskin fibrobalsts (FF1). Sepharose Beads were added to 12 well culture plates with sub-confluent monolayer of the cultured cells (100-300 beads were added to each well). The fraction of Sepharose Beads attached to the monolayer was monitored at different times.

[2] = tested on: human foreskin fibrobalsts (FF1); assay: Cell attachment assay in monolayers (peptide-coated Sepharose beads), FF1; assay type: cell-based; details: for cell binding activity at the lower dose (words): 6 mg peptide/ml compared with 12 mg/ml; for time to saturated attachment: Conclusions b109, concentration and cell type not stated; for Nomarsky optics microscopy of peptide coated beads attached to FF1 (observation): 3 days to 3 weeks of incubation; for activity in comparison with the positive control PreC-gamma: FIG. 3b, cell type not stated
Description: as §1, §2, §3, §4

FF1 = assay: Toxicity assay for the peptides (MTS cell survival), FF1; assay type: cell-based, human
Description: (§5) A toxicity assay was done to determine the toxicity of the peptides tested to either one of the cell lines used. 15×10^3 cells (FF1 or BAEC) were seeded in 96 well plastic plates. After an overnight incubation, increasing concentrations of peptides in the range of 0.1-300 μg/ml were added to the wells. Cell survival was checked by the MTS assay after 2 and 5 days and normalized to the cell number of the controls (no peptide).

BAEC = assay: Toxicity assay for the peptides (MTS cell survival), BAEC; assay type: cell-based, bovine
Description: as §5

FF1 in suspension = assay: Cell attachment assay in cell suspensions (MTS assay); assay type: cell-based, human; details: followed over days
From the text: Attachment of FF1 in suspension to peptides bound to sepharose beads was followed using the MTS assay. The MTS assay uses tetrazolium, which is taken up by viable cells and converted into formazan, which has a light absorption peak at 492 nm. The light absorbance at 492 (OD492) is directly proportional to the number of the living cells attached to the beads. Calibration curves were used to transform the OD492 readings into cell number, […]

[3] = FF1 monolayer, 6 mg peptide/ml Sepharose beads
[4] = FF1, FIG. 3a, peptide concentration not given
[5] = high concentrations (>100 μg/ml), 5 days
[6] = very high concentrations (>100 μg/ml), prolonged exposure (5 days)

In the case of “C-Fic: peptide having the sequence KGYNYSYKSEMKVRPA (SEQ ID NO: 1); subsequence of human ficolin (listed as Homo sapiens)”, the “cell binding activity at the lower dose (words)” value [1] was “completely looses reactivity”, the “cell binding activity at the lower dose (words)” value ([1]; listed as C-fic) was “did not attach; also recorded: some activity” and the “extent of cell binding” value ([1]; BAEC, 6 mg peptide/ml, after 96 hours of incubation) was “about 30%”. For the same substance, the “extent of cell binding” value ([2]; FF1, 6 mg peptide/ml, after 96 hours of incubation) was “about 30%”, the “cell binding activity at the lower dose (words)” value ([2]; FF1 monolayer) was “no reactivity” and the “cell binding activity at the lower dose (words)” value ([2]; FF1 monolayer, listed as C-fic) was “did not attach; also recorded: looses its activity; also recorded: inactive”. For the same substance, the “cell binding (extent reached)” value ([2]; FF1 monolayer, 12 mg peptide/ml, up to 150 hours) was 100%.

For “C-Fic-a-K: peptide having the sequence KGYKYSYKVSEMKVRPAK (SEQ ID NO: 4) (listed as Homo sapiens)”, the “cell binding (extent reached)” value [2, 3] was 100%.

In the case of “C-M-Fic-a-K: peptide having the sequence KGYKYSYKVSEMKFQRRMDGSVDFYRK (SEQ ID NO: 7) (listed as Homo sapiens)”, the “rate / kinetics of cell binding compared with positive control PreC” value ([2]; FF1 monolayer, 6 mg peptide/ml) was “accelerated the kinetics of cell binding”.

For “C-M-Fic2K: peptide having the sequence KGYKYSYKGGWTVFQRRMDGSVDFYRK (SEQ ID NO: 6) (listed as Homo sapiens)”, the “cell binding (extent reached)” value [2, 4] was 100% and the “kinetic profile of cell binding” value [2, 4] was “good kinetic profile of cell binding (fast attachment)”.

In the case of “C-M-Fic2: peptide having the sequence KGYKYSYKGGWTVFQRRMDGSVDFYR (SEQ ID NO: 8) (listed as Homo sapiens)”, the “cell binding (extent reached)” value [2, 4] was 100% and the “kinetic profile of cell binding” value [2, 4] was “good kinetic profile of cell binding (fast attachment)”.

“M-Fic: peptide having the sequence GGWTVFQRRVDGSVDFYRK (SEQ ID NO: 2) (listed as Homo sapiens)” was tested, and the “cell binding activity at the lower dose (words)” value [1] was “slight decrease”, the “Nomarsky optics microscopy of peptide coated beads attached to BAEC (observation)” value ([1]; BAEC) was “formation of small tubes” and the “overall activity at longer incubation times” value [1] was “highest activity”. For the same substance, the “time to saturated attachment” value [2] was 72 h, the “Nomarsky optics microscopy of peptide coated beads attached to FF1 (observation)” value ([2]; FF1) was “aggregates of cells and beads formed” and the “time to reach 100% / saturated cell binding” value ([2]; FF1 monolayer, 6 mg peptide/ml) was ≤ 24 h. The “cell binding activity at the lower dose (words)” value ([2]; FF1 monolayer) was “retains its activity”, the “cell binding activity at the lower dose (words)” value ([2]; FF1 monolayer, listed as M-fic) was “retain most of its activity” and the “activity in comparison with the positive control PreC-gamma” value ([2]; 6 mg peptide/ml) was “initially inferior to the positive control”.

With “C-M-Fic: peptide having the sequence KGYNYSYKVSEMKFQRRVDGSVDFYRK (SEQ ID NO: 3) (listed as Homo sapiens)” the “cell survival, normalized to controls” value (FF1; [5]) was “about 50%”, the “toxicity” value (FF1; [6]) was “some minor toxicity” and the “cell binding activity at the lower dose (words)” value [1] was “slower rate at the lower concentration”. For the same substance, the “Nomarsky optics microscopy of peptide coated beads attached to BAEC (observation)” value ([1]; BAEC) was “formation of small tubes”, the “overall activity at longer incubation times” value [1] was “also active” and the “time to saturated attachment” value [2] was 72 h. For the same substance, the “Nomarsky optics microscopy of peptide coated beads attached to FF1 (observation)” value ([2]; FF1) was “aggregates of cells and beads formed”, the “time to reach 100% / saturated cell binding” value ([2]; FF1 monolayer, 6 mg peptide/ml) was 96 h and the “cell binding (extent reached)” value [2, 3] was 100%. For the same substance, the “cell binding activity at the lower dose (words)” value ([2]; FF1 monolayer) was “strongly affected by the decrease”, the “cell binding activity at the lower dose (words)” value ([2]; FF1 monolayer, listed as C-M-fic) was “strongly affected by the lowerdose” and the “time to reach 100% / saturated cell binding” value ([2]; FF1 monolayer, 6 mg peptide/ml, listed as C-M-fic) was ≤ 96 h. For the same substance, the “rate of cell binding compared to the lower concentration” value ([2]; FF1 monolayer, 12 mg peptide/ml) was “slightly faster cell binding”, the “time to reach 100% cell binding” value ([2]; FF1 monolayer, higher dose (12 mg/ml)) was 20 h and the “cell survival, normalized to controls” value (BAEC; [5]) was “about 50%”. The “toxicity” value (BAEC; [6]) was “some minor toxicity”, the “attachment of FF1 cells in suspension to coated sepharose beads over time (words)” value (FF1 in suspension; listed as C-M-fic) was “an increase in cell number is detected after the first day” and the “attachment of FF1 cells in suspension to coated sepharose beads over time (words)” value (FF1 in suspension; listed as CM-fic) was “stable for at least three days”.

In the case of “PreC: positive control peptide KTRWYSMKKTTMKIIPFNR (SEQ ID NO: 10) (listed as Homo sapiens) [reference compound]”, the “cell binding (extent reached)” value [2, 3] was 100%.

“M-Fic-K: peptide having the sequence GGWTVFQRRMDGSVDFYRK (SEQ ID NO: 5) (listed as Homo sapiens)” was tested, and the “activity in comparison with the positive control PreC-gamma” value ([2]; 6 mg peptide/ml) was “dramatic change in activity”.
